Publication PMC5218480 (PLoS ONE, 2017)

Test system: MV-4-11 cells
Assay: Gene expression microarray analysis (Affymetrix PrimeView) and GSEA
Type: cell-based, human
Design: RFU PODN (11730768_x_at) / Fold change /veh PODN (11730768_x_at) / RFU LINC00158 (11744669_a_at) / Fold change /veh LINC00158 (11744669_a_at) / RFU DUSP10 (11751237_a_at) / Fold change /veh DUSP10 (11751237_a_at) / RFU ID3 (11757404_x_at) / Fold change /veh ID3 (11757404_x_at) / RFU PLEKHG5 (11737974_s_at) / Fold change /veh PLEKHG5 (11737974_s_at) / RFU LRRC4B (11730491_at) / Fold change /veh LRRC4B (11730491_at) / RFU GIMAP4 (11747438_a_at) / Fold change /veh GIMAP4 (11747438_a_at) / RFU KRT8 (11758183_x_at) / Fold change /veh KRT8 (11758183_x_at) / RFU CNN1 (11734310_a_at) / Fold change /veh CNN1 (11734310_a_at) / RFU VPS37D (11726825_at) / Fold change /veh VPS37D (11726825_at) / RFU C10orf10 (11716522_x_at) / Fold change /veh C10orf10 (11716522_x_at) / RFU KIR2DL2 /// KIR2DL4 /// KIR2DL5A /// KIR2DL5B /// KIR2DS1 /// KIR2DS2 /// KIR2DS3 /// KIR2DS4 /// KIR3DL3 /// KIR3DL3 /// KIR3DS1 (11738374_at) / Fold change /veh KIR2DL2 /// KIR2DL4 /// KIR2DL5A /// KIR2DL5B /// KIR2DS1 /// KIR2DS2 /// KIR2DS3 /// KIR2DS4 /// KIR3DL3 /// KIR3DL3 /// KIR3DS1 (11738374_at) / RFU C1QL1 (11718748_at) / Fold change /veh C1QL1 (11718748_at) / RFU TMPRSS4 (11747572_a_at) / Fold change /veh TMPRSS4 (11747572_a_at) / RFU HAMP (11756126_x_at) / Fold change /veh HAMP (11756126_x_at) / RFU RNFT2 (11725882_a_at) / Fold change /veh RNFT2 (11725882_a_at) / RFU NR4A2 (11747474_a_at) / Fold change /veh NR4A2 (11747474_a_at) / RFU ABCC12 (11746883_a_at) / Fold change /veh ABCC12 (11746883_a_at) / RFU TMEM136 (11760407_x_at) / Fold change /veh TMEM136 (11760407_x_at) / RFU CLDN22 /// WWC2 (11732394_at) / Fold change /veh CLDN22 /// WWC2 (11732394_at) / RFU HLA-DPB1 (11760878_x_at) / Fold change /veh HLA-DPB1 (11760878_x_at) / RFU SPINT1 (11716480_a_at) / Fold change /veh SPINT1 (11716480_a_at) / RFU GAP43 (11754022_s_at) / Fold change /veh GAP43 (11754022_s_at) / RFU A4GNT (11735810_at) / Fold change /veh A4GNT (11735810_at) / RFU PRB3 (11715151_x_at) / Fold change /veh PRB3 (11715151_x_at) / RFU TUBB4B (11761932_at) / Fold change /veh TUBB4B (11761932_at) / RFU CAPN14 (11732068_a_at) / Fold change /veh CAPN14 (11732068_a_at) / RFU TMCC2 (11721928_a_at) / Fold change /veh TMCC2 (11721928_a_at) / RFU IRGQ (11745062_a_at) / Fold change /veh IRGQ (11745062_a_at) / RFU FAM174B (11720279_a_at) / Fold change /veh FAM174B (11720279_a_at) / RFU TMPRSS4 (11748680_a_at) / Fold change /veh TMPRSS4 (11748680_a_at) / RFU FAM212B (11763350_a_at) / Fold change /veh FAM212B (11763350_a_at) / RFU PLEKHG5 (11743358_a_at) / Fold change /veh PLEKHG5 (11743358_a_at) / RFU ZSCAN30 (11745921_a_at) / Fold change /veh ZSCAN30 (11745921_a_at) / RFU CMKLR1 (11741424_a_at) / Fold change /veh CMKLR1 (11741424_a_at) / RFU LOC101060620 /// MAPK8IP1 (11723275_at) / Fold change /veh LOC101060620 /// MAPK8IP1 (11723275_at) / RFU SPTSSB (11747773_x_at) / Fold change /veh SPTSSB (11747773_x_at) / RFU PRSS12 (11739890_at) / Fold change /veh PRSS12 (11739890_at) / RFU BIN1 (11741810_x_at) / Fold change /veh BIN1 (11741810_x_at) / RFU WNT11 (11732464_a_at) / Fold change /veh WNT11 (11732464_a_at) / RFU C10orf10 (11716521_a_at) / Fold change /veh C10orf10 (11716521_a_at) / RFU C5orf56 (11738089_at) / Fold change /veh C5orf56 (11738089_at) / RFU CYB561 (11721691_x_at) / Fold change /veh CYB561 (11721691_x_at) / RFU ANKRD19P (11752326_a_at) / Fold change /veh ANKRD19P (11752326_a_at) / RFU OR2T12 /// OR2T33 /// OR2T8 (11738714_s_at) / Fold change /veh OR2T12 /// OR2T33 /// OR2T8 (11738714_s_at) / RFU VCAN (11748164_a_at) / Fold change /veh VCAN (11748164_a_at) / RFU JSRP1 (11732532_at) / Fold change /veh JSRP1 (11732532_at) / RFU KRTAP10-11 (11738290_x_at) / Fold change /veh KRTAP10-11 (11738290_x_at) / RFU MYO3A (11730013_a_at) / Fold change /veh MYO3A (11730013_a_at) / RFU EBF3 (11725865_a_at) / Fold change /veh EBF3 (11725865_a_at) / RFU CAMK2N1 (11719241_x_at) / Fold change /veh CAMK2N1 (11719241_x_at) / RFU C5orf56 (11738088_a_at) / Fold change /veh C5orf56 (11738088_a_at) / RFU OLFML3 (11715873_a_at) / Fold change /veh OLFML3 (11715873_a_at) / RFU LOC100653217 /// NTM (11731650_a_at) / Fold change /veh LOC100653217 /// NTM (11731650_a_at) / RFU MAPK11 (11762145_a_at) / Fold change /veh MAPK11 (11762145_a_at) / RFU FIZ1 (11724087_x_at) / Fold change /veh FIZ1 (11724087_x_at) / RFU OASL (11726364_x_at) / Fold change /veh OASL (11726364_x_at) / RFU SOX15 (11748057_x_at) / Fold change /veh SOX15 (11748057_x_at) / RFU CD79A (11719716_a_at) / Fold change /veh CD79A (11719716_a_at) / RFU HIST1H1D (11736915_at) / Fold change /veh HIST1H1D (11736915_at) / RFU CASKIN2 (11723855_a_at) / Fold change /veh CASKIN2 (11723855_a_at) / RFU LOC730098 (11760151_x_at) / Fold change /veh LOC730098 (11760151_x_at) / RFU OR4N2 (11742367_at) / Fold change /veh OR4N2 (11742367_at) / RFU PRRT2 (11749266_a_at) / Fold change /veh PRRT2 (11749266_a_at) / RFU SNX32 (11753110_a_at) / Fold change /veh SNX32 (11753110_a_at) / RFU CDHR5 (11726645_a_at) / Fold change /veh CDHR5 (11726645_a_at) / RFU RCAN1 (11760418_a_at) / Fold change /veh RCAN1 (11760418_a_at) / RFU FAM167A (11723789_a_at) / Fold change /veh FAM167A (11723789_a_at) / RFU FAM26E (11764081_at) / Fold change /veh FAM26E (11764081_at) / RFU ISYNA1 (11749810_s_at) / Fold change /veh ISYNA1 (11749810_s_at) / RFU ACY1 (11761880_at) / Fold change /veh ACY1 (11761880_at) / RFU 11764098_at / Fold change /veh 11764098_at / RFU SAMD14 (11745864_x_at) / Fold change /veh SAMD14 (11745864_x_at) / RFU NPB (11741838_a_at) / Fold change /veh NPB (11741838_a_at) / RFU TMPRSS6 (11731388_a_at) / Fold change /veh TMPRSS6 (11731388_a_at) / RFU KRTAP10-2 (11738614_at) / Fold change /veh KRTAP10-2 (11738614_at) / RFU ARHGAP8 /// PRR5-ARHGAP8 (11727945_x_at) / Fold change /veh ARHGAP8 /// PRR5-ARHGAP8 (11727945_x_at) / RFU KRTAP5-7 /// NADSYN1 (11734609_at) / Fold change /veh KRTAP5-7 /// NADSYN1 (11734609_at) / RFU RASL12 (11751679_a_at) / Fold change /veh RASL12 (11751679_a_at) / RFU CDKN2B (11736163_a_at) / Fold change /veh CDKN2B (11736163_a_at) / RFU PRF1 (11729649_at) / Fold change /veh PRF1 (11729649_at) / RFU, ZNF638 /// ZNF638-IT1 / Fold change vs veh, ZNF638 /// ZNF638-IT1 / RFU, PANK3 / Fold change vs veh, PANK3 / RFU, SH3YL1 / Fold change vs veh, SH3YL1 / RFU, ZEB2 / Fold change vs veh, ZEB2 / RFU, NRIP1 / Fold change vs veh, NRIP1 / RFU, PTTG1IP / Fold change vs veh, PTTG1IP / RFU, CAPN2 / Fold change vs veh, CAPN2 / RFU, MED14 / Fold change vs veh, MED14 / RFU, SNORA58 / Fold change vs veh, SNORA58 / RFU, C1orf63 / Fold change vs veh, C1orf63 / RFU, LRRFIP1 / Fold change vs veh, LRRFIP1 / RFU, NDUFAF7 / Fold change vs veh, NDUFAF7 / RFU, SLC12A2 / Fold change vs veh, SLC12A2 / RFU, IBTK / Fold change vs veh, IBTK / RFU, ESF1 / Fold change vs veh, ESF1 / Fold change vs veh, TMEM50B / RFU, TAOK1 / Fold change vs veh, TAOK1 / RFU, ACBD3 / Fold change vs veh, ACBD3 / RFU, TMA16 / Fold change vs veh, TMA16 / RFU, RWDD3 / Fold change vs veh, RWDD3 / RFU, BCAT1 / Fold change vs veh, BCAT1 / RFU, EDEM3 / Fold change vs veh, EDEM3 / RFU, TMEM33 / Fold change vs veh, TMEM33 / RFU, WDR75 / Fold change vs veh, WDR75 / RFU, AHCTF1 / Fold change vs veh, AHCTF1 / RFU, TFRC / Fold change vs veh, TFRC / RFU, ZDHHC17 / Fold change vs veh, ZDHHC17 / RFU, NOM1 / Fold change vs veh, NOM1 / RFU, ARL8B / Fold change vs veh, ARL8B / RFU, ZBTB11 / Fold change vs veh, ZBTB11 / RFU, TAMM41 / Fold change vs veh, TAMM41 / RFU, KIAA1704 /// LOC100996395 / Fold change vs veh, KIAA1704 /// LOC100996395 / RFU, ING1 / Fold change vs veh, ING1 / RFU, TRMT61B / Fold change vs veh, TRMT61B / RFU, FUBP3 / Fold change vs veh, FUBP3 / RFU, TP53 / Fold change vs veh, TP53 / RFU, TNKS2 / Fold change vs veh, TNKS2 / RFU, ZFP14 / Fold change vs veh, ZFP14 / RFU, ACTR2 / Fold change vs veh, ACTR2 / RFU, PPP3R1 / Fold change vs veh, PPP3R1 / RFU, PIK3R1 / Fold change vs veh, PIK3R1 / RFU, HNRNPA1 / Fold change vs veh, HNRNPA1 / RFU, RNF170 / Fold change vs veh, RNF170 / RFU, ZNF28 / Fold change vs veh, ZNF28 / RFU, RNGTT / Fold change vs veh, RNGTT / RFU, OGT / Fold change vs veh, OGT / RFU, BRD1 / Fold change vs veh, BRD1 / RFU, MARS / Fold change vs veh, MARS / RFU, ZNF655 / Fold change vs veh, ZNF655 / RFU, FAHD1 / Fold change vs veh, FAHD1 / RFU, BDP1 / Fold change vs veh, BDP1 / RFU, LRRCC1 / Fold change vs veh, LRRCC1 / RFU, ARID1A / Fold change vs veh, ARID1A / RFU, ZNF146 / Fold change vs veh, ZNF146 / RFU, ZNF330 / Fold change vs veh, ZNF330 / RFU, GPN3 / Fold change vs veh, GPN3 / RFU, C9orf123 / Fold change vs veh, C9orf123 / RFU, N4BP2L2 / Fold change vs veh, N4BP2L2 / RFU, ARFIP1 / Fold change vs veh, ARFIP1 / RFU, FAM179B / Fold change vs veh, FAM179B / RFU, BCL10 / Fold change vs veh, BCL10 / RFU, UHRF1BP1L / Fold change vs veh, UHRF1BP1L / RFU, BET1 / Fold change vs veh, BET1 / RFU, CNOT2 / Fold change vs veh, CNOT2 / RFU, ZNF268 / Fold change vs veh, ZNF268 / Fold change vs veh, ZNF507 / RFU, DGCR2 / Fold change vs veh, DGCR2 / RFU, WDSUB1 / Fold change vs veh, WDSUB1 / Fold change vs veh, HSP90B1 /// MIR3652 / RFU, ADSS / Fold change vs veh, ADSS / RFU, GK / Fold change vs veh, GK / RFU, ZNF148 / Fold change vs veh, ZNF148 / RFU, TAF9 / Fold change vs veh, TAF9 / RFU, SLC1A5 / Fold change vs veh, SLC1A5 / RFU, SLMO2 / Fold change vs veh, SLMO2 / RFU, ABCC4 / Fold change vs veh, ABCC4 / RFU, LOC101060439 /// RAP1B / Fold change vs veh, LOC101060439 /// RAP1B / RFU, RFX7 / Fold change vs veh, RFX7 / RFU, GTPBP10 / Fold change vs veh, GTPBP10 / RFU, CNEP1R1 / Fold change vs veh, CNEP1R1 / RFU, BIVM-ERCC5 /// ERCC5 / Fold change vs veh, BIVM-ERCC5 /// ERCC5 / RFU, ILF3 / Fold change vs veh, ILF3 / RFU 11762660_at / Fold change /veh 11762660_at / RFU VCAN (11757783_s_at) / Fold change /veh VCAN (11757783_s_at) / RFU DDX43 (11728927_at) / Fold change /veh DDX43 (11728927_at) / RFU KRT8 (11758188_x_at) / Fold change /veh KRT8 (11758188_x_at) / RFU NKD1 (11759106_at) / Fold change /veh NKD1 (11759106_at) / RFU SRD5A1 (11742802_a_at) / Fold change /veh SRD5A1 (11742802_a_at) / RFU TPSAB1 /// TPSB2 (11721975_s_at) / Fold change /veh TPSAB1 /// TPSB2 (11721975_s_at) / RFU GSTM3 (11746129_a_at) / Fold change /veh GSTM3 (11746129_a_at) / RFU IL23R (11737362_x_at) / Fold change /veh IL23R (11737362_x_at) / RFU TMEM51 (11727254_a_at) / Fold change /veh TMEM51 (11727254_a_at) / RFU PIWIL2 (11732686_x_at) / Fold change /veh PIWIL2 (11732686_x_at) / RFU ORM1 (11744905_x_at) / Fold change /veh ORM1 (11744905_x_at) / RFU CCDC152 (11743942_at) / Fold change /veh CCDC152 (11743942_at) / RFU ECM1 (11717891_a_at) / Fold change /veh ECM1 (11717891_a_at) / RFU IL23R (11748794_a_at) / Fold change /veh IL23R (11748794_a_at) / RFU TNFAIP8L3 (11732012_x_at) / Fold change /veh TNFAIP8L3 (11732012_x_at) / RFU MBOAT4 (11741988_at) / Fold change /veh MBOAT4 (11741988_at) / RFU 11764193_at / Fold change /veh 11764193_at / RFU TMEM53 (11763286_at) / Fold change /veh TMEM53 (11763286_at) / RFU MAGEB2 (11727129_at) / Fold change /veh MAGEB2 (11727129_at) / RFU TMEM200A (11744735_a_at) / Fold change /veh TMEM200A (11744735_a_at) / RFU CCDC152 (11751479_a_at) / Fold change /veh CCDC152 (11751479_a_at) / RFU FAM211A (11726209_a_at) / Fold change /veh FAM211A (11726209_a_at) / RFU RGS16 (11746705_a_at) / Fold change /veh RGS16 (11746705_a_at) / RFU VCAN (11755009_s_at) / Fold change /veh VCAN (11755009_s_at) / RFU RHOB (11743442_s_at) / Fold change /veh RHOB (11743442_s_at) / RFU RGS16 (11720943_a_at) / Fold change /veh RGS16 (11720943_a_at) / RFU RGS16 (11720944_at) / Fold change /veh RGS16 (11720944_at) / RFU, VPS4B / Fold change vs veh, VPS4B / RFU, CREB1 / Fold change vs veh, CREB1 / RFU, DNAJC13 / Fold change vs veh, DNAJC13 / RFU, GNAQ / Fold change vs veh, GNAQ / RFU, CDK5R1 / Fold change vs veh, CDK5R1 / RFU, ZRANB3 / Fold change vs veh, ZRANB3 / RFU, CUL4A / Fold change vs veh, CUL4A / RFU, CCNY / Fold change vs veh, CCNY / RFU, UFL1 / Fold change vs veh, UFL1 / RFU, COG3 / Fold change vs veh, COG3 / RFU, DIAPH2 / Fold change vs veh, DIAPH2 / RFU, SKA2 / Fold change vs veh, SKA2 / RFU, AFF3 / Fold change vs veh, AFF3 / RFU, LMF1 / Fold change vs veh, LMF1 / RFU, IPO11 / Fold change vs veh, IPO11 / RFU, DFFB / Fold change vs veh, DFFB / RFU, FOXP1 / Fold change vs veh, FOXP1 / RFU, CARD8 / Fold change vs veh, CARD8 / RFU, STRN3 / Fold change vs veh, STRN3 / RFU, ADK / Fold change vs veh, ADK / RFU, RASSF2 / Fold change vs veh, RASSF2 / RFU, WIPF1 / Fold change vs veh, WIPF1 / RFU, LARP1B / Fold change vs veh, LARP1B / RFU, RASA1 / Fold change vs veh, RASA1 / RFU, RB1 / Fold change vs veh, RB1 / RFU, PPFIA1 / Fold change vs veh, PPFIA1 / RFU, MAT2A / Fold change vs veh, MAT2A / RFU, CCT5 / Fold change vs veh, CCT5 / RFU, WDR92 / Fold change vs veh, WDR92 / RFU, CUX1 / Fold change vs veh, CUX1 / RFU, TTC7A / Fold change vs veh, TTC7A / RFU, TMEM135 / Fold change vs veh, TMEM135 / RFU, DEPTOR / Fold change vs veh, DEPTOR / RFU, CPM / Fold change vs veh, CPM / RFU, DNAJB6 / Fold change vs veh, DNAJB6 / RFU, CACNA2D3 / Fold change vs veh, CACNA2D3 / RFU, DTX4 / Fold change vs veh, DTX4 / RFU, TFCP2 / Fold change vs veh, TFCP2 / RFU, GMCL1 /// GMCL1P1 / Fold change vs veh, GMCL1 /// GMCL1P1 / RFU, AEBP2 / Fold change vs veh, AEBP2 / RFU, SNHG1 /// SNORD22 /// SNORD25 /// SNORD26 /// SNORD27 /// SNORD28 /// SNORD29 /// SNORD31 / Fold change vs veh, SNHG1 /// SNORD22 /// SNORD25 /// SNORD26 /// SNORD27 /// SNORD28 /// SNORD29 /// SNORD31 / Fold change (Aza/veh), C12orf56 (ProbeSet 11735607_a_at) / Fold change (ACY-1035/veh), C12orf56 (ProbeSet 11735607_a_at) / Fold change (Aza/veh), FGFR1OP (ProbeSet 11751329_s_at) / Fold change (ACY-1035/veh), FGFR1OP (ProbeSet 11751329_s_at) / Fold change (Aza/veh), VPS36 (ProbeSet 11739960_a_at) / Fold change (ACY-1035/veh), VPS36 (ProbeSet 11739960_a_at) / RFU SYPL1 (11715823_x_at) / Fold change /veh SYPL1 (11715823_x_at) / RFU IGFBP7 (11715501_s_at) / Fold change /veh IGFBP7 (11715501_s_at) / RFU REEP3 (11722064_at) / Fold change /veh REEP3 (11722064_at) / RFU IGLL1 (11728026_x_at) / Fold change /veh IGLL1 (11728026_x_at): dose or concentration left out as unconfirmed
Conditions: ProbeSet 11731093_s_at; LIST B

Nc1ncn([C@@H]2O[C@H](CO)[C@@H](O)[C@H]2O)c(=O)n1 [azacitidine]
Fold change vs veh, BRD1: 0.85
